In article PMC7385619, “A triple action CDK4/6-PI3K-BET inhibitor with augmented cancer cell cytotoxicity” (Cell Discovery, 2020):
Read-outs that look alike come from different tables or passages of the source.

How the values were obtained:
Experiment in all cases: KINOMEscan assay (Eurofins DiscoverX)
Format in all cases: binding
[1] = biological target: T1, kinome (kinase panel) (Homo sapiens, UniProt Q99558); settings: NIK (Entrez MAP3K14); 1000 nM; read-out: Percent Control
T1 construct: purchased Eurofins DiscoverX

[2] = biological target: T2, kinome (kinase panel) (Homo sapiens, UniProt Q9BYP7); settings: WNK3; 1000 nM; read-out: Percent Control
T2 construct: purchased Eurofins DiscoverX

[3] = biological target: T3, kinome (kinase panel) (Homo sapiens, UniProt Q02750); settings: MEK1 (Entrez MAP2K1); 1000 nM; read-out: Percent Control
T3 construct: purchased Eurofins DiscoverX

[4] = biological target: T4, kinome (kinase panel) (Homo sapiens, UniProt Q9UBE8); settings: NLK; 1000 nM; read-out: Percent Control
T4 construct: purchased Eurofins DiscoverX

[5] = biological target: T5, kinome (kinase panel) (Homo sapiens, UniProt P29317); settings: EPHA2; 1000 nM; read-out: Percent Control
T5 construct: purchased Eurofins DiscoverX

[6] = biological target: T6, kinome (kinase panel) (Homo sapiens, UniProt Q9Y3S1); settings: WNK2; 1000 nM; read-out: Percent Control
T6 construct: purchased Eurofins DiscoverX

[7] = biological target: T7, kinome (kinase panel) (Homo sapiens, UniProt P51956); settings: NEK3; 1000 nM; read-out: Percent Control
T7 construct: purchased Eurofins DiscoverX

[8] = biological target: T8, kinome (kinase panel) (Homo sapiens, UniProt P35916); settings: FLT4; 1000 nM; read-out: Percent Control
T8 construct: purchased Eurofins DiscoverX

[9] = biological target: T9, kinome (kinase panel) (Homo sapiens, UniProt P00533, G719C); settings: […]; 1000 nM; read-out: Percent Control
T9 construct: purchased Eurofins DiscoverX

[10] = biological target: T10, kinome (kinase panel) (Homo sapiens, UniProt Q12852); settings: DLK (Entrez MAP3K12); 1000 nM; read-out: Percent Control
T10 construct: purchased Eurofins DiscoverX

[11] = biological target: T11, kinome (kinase panel) (Homo sapiens, UniProt Q96J92); settings: WNK4; 1000 nM; read-out: Percent Control
T11 construct: purchased Eurofins DiscoverX

[12] = biological target: T12, kinome (kinase panel) (Homo sapiens, UniProt P51817); settings: PRKX; 1000 nM; read-out: Percent Control
T12 construct: purchased Eurofins DiscoverX

[13] = biological target: T13, kinome (kinase panel) (Homo sapiens, UniProt Q96SB4); settings: SRPK1; 1000 nM; read-out: Percent Control
T13 construct: purchased Eurofins DiscoverX

[14] = biological target: T14, kinome (kinase panel) (Homo sapiens, UniProt P00519, Q252H)
T14 construct: purchased Eurofins DiscoverX

[15] = biological target: T15, kinome (kinase panel) (Homo sapiens, UniProt P42336, I800L); settings: read-out: Percent Control
T15 construct: purchased Eurofins DiscoverX

[16] = biological target: T16, kinome (kinase panel) (Homo sapiens, UniProt P33981); settings: TTK; 1000 nM; read-out: Percent Control
T16 construct: purchased Eurofins DiscoverX

[17] = biological target: T17, kinome (kinase panel) (Homo sapiens, UniProt Q07002); settings: PCTK3 (Entrez CDK18); 1000 nM; read-out: Percent Control
T17 construct: purchased Eurofins DiscoverX

[18] = biological target: T18, kinome (kinase panel) (Homo sapiens, UniProt Q13546); settings: RIPK1; 1000 nM; read-out: Percent Control
T18 construct: purchased Eurofins DiscoverX

[19] = biological target: T19, kinome (kinase panel) (Homo sapiens, UniProt Q16659); settings: ERK3 (Entrez MAPK6); 1000 nM; read-out: Percent Control
T19 construct: purchased Eurofins DiscoverX

[20] = biological target: T20, kinome (kinase panel) (Homo sapiens, UniProt O14733); settings: MKK7 (Entrez MAP2K7); 1000 nM; read-out: Percent Control
T20 construct: purchased Eurofins DiscoverX

[21] = biological target: T21, kinome (kinase panel) (Homo sapiens, UniProt O43318); settings: TAK1 (MAP3K7); 1000 nM; read-out: Percent Control
T21 construct: purchased Eurofins DiscoverX

[22] = biological target: T22, kinome (kinase panel) (Homo sapiens, UniProt P36888, D835H); settings: […]; 1000 nM; read-out: Percent Control
T22 construct: purchased Eurofins DiscoverX

[23] = biological target: T23, kinome (kinase panel) (Homo sapiens, UniProt Q13470); settings: TNK1; 1000 nM; read-out: Percent Control
T23 construct: purchased Eurofins DiscoverX

[24] = biological target: T24, kinome (kinase panel) (Homo sapiens, UniProt O95747); settings: OSR1 (Entrez OXSR1); 1000 nM; read-out: Percent Control
T24 construct: purchased Eurofins DiscoverX

[25] = biological target: T25, kinome (kinase panel) (Homo sapiens, UniProt P00533, L858R/T790M); settings: read-out: Percent Control
T25 construct: purchased Eurofins DiscoverX

[26] = biological target: T26, kinome (kinase panel) (Homo sapiens, UniProt Q9NSY1); settings: BIKE (Entrez BMP2K); 1000 nM; read-out: Percent Control
T26 construct: purchased Eurofins DiscoverX

[27] = biological target: T27, kinome (kinase panel) (Homo sapiens, UniProt P36888); settings: 1000 nM, read-out: Percent Control
T27 construct: purchased Eurofins DiscoverX

[28] = biological target: T28, kinome (kinase panel) (Homo sapiens, UniProt P22694); settings: PKAC-beta (Entrez PRKACB); 1000 nM; read-out: Percent Control
T28 construct: purchased Eurofins DiscoverX

[29] = biological target: T29, kinome (kinase panel) (Homo sapiens, UniProt Q8WXR4); settings: MYO3B; 1000 nM; read-out: Percent Control
T29 construct: purchased Eurofins DiscoverX

[30] = biological target: T30, kinome (kinase panel) (Homo sapiens, UniProt Q9BZL6); settings: PRKD2; 1000 nM; read-out: Percent Control
T30 construct: purchased Eurofins DiscoverX

[31] = biological target: T31, kinome (kinase panel) (Homo sapiens, UniProt P19525); settings: PRKR (Entrez EIF2AK2); 1000 nM; read-out: Percent Control
T31 construct: purchased Eurofins DiscoverX

[32] = biological target: T32, kinome (kinase panel) (Homo sapiens, UniProt P36894); settings: BMPR1A; 1000 nM; read-out: Percent Control
T32 construct: purchased Eurofins DiscoverX

T31 sequence (P19525 whole entry): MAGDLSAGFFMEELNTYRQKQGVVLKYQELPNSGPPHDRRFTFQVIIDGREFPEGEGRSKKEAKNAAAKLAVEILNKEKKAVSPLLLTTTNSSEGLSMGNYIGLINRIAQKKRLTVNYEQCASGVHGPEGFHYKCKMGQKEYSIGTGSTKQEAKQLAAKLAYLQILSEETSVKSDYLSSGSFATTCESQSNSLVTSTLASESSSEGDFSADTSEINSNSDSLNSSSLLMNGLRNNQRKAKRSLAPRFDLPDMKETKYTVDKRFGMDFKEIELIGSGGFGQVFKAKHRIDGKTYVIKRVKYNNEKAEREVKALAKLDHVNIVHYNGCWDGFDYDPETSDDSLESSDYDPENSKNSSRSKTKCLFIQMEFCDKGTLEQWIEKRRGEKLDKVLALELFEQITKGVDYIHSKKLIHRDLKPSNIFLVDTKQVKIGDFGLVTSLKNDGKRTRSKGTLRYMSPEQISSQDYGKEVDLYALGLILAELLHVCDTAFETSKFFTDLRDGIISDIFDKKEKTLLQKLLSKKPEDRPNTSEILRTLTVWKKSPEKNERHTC
T16 sequence (P33981 whole entry): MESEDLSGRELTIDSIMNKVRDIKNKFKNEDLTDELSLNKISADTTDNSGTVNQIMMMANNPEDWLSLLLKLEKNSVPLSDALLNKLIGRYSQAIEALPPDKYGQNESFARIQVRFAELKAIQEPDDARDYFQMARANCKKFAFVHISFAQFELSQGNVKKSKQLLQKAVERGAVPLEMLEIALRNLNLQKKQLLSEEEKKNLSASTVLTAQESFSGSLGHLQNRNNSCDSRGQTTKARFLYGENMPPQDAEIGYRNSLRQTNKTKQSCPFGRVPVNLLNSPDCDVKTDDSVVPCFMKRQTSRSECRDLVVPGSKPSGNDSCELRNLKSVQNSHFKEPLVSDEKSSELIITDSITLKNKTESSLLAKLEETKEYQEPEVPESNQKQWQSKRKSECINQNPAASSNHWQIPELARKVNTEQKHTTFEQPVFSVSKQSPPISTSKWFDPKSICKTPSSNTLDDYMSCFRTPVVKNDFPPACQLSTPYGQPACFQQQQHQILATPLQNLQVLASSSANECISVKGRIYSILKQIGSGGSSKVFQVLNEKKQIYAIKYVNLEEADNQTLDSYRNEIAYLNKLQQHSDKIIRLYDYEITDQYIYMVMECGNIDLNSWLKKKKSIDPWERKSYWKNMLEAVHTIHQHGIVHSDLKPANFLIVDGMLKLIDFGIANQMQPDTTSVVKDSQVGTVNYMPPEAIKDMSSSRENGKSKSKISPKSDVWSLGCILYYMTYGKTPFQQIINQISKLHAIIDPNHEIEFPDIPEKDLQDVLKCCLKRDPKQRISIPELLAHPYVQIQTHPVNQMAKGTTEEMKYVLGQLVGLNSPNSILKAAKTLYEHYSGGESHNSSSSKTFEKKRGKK
T19 sequence (Q16659 whole entry): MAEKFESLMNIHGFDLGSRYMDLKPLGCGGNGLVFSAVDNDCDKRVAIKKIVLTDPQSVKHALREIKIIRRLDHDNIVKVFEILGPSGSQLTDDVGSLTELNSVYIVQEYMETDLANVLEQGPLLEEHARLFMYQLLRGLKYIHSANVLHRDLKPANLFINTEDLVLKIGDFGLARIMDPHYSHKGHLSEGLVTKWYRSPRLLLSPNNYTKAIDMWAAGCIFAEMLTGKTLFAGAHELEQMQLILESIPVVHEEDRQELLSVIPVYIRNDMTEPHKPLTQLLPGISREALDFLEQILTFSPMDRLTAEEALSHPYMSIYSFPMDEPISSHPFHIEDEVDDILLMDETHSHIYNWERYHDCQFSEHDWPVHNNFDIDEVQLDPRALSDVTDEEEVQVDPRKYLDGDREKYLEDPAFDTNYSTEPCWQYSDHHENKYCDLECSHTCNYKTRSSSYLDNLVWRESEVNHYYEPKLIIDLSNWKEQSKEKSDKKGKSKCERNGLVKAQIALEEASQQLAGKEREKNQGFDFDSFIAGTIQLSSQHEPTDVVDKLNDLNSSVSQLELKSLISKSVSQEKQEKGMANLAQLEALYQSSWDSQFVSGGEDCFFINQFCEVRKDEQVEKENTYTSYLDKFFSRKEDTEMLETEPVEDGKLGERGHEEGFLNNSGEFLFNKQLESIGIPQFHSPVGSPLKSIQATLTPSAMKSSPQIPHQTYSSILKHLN
T7 sequence (P51956 whole entry): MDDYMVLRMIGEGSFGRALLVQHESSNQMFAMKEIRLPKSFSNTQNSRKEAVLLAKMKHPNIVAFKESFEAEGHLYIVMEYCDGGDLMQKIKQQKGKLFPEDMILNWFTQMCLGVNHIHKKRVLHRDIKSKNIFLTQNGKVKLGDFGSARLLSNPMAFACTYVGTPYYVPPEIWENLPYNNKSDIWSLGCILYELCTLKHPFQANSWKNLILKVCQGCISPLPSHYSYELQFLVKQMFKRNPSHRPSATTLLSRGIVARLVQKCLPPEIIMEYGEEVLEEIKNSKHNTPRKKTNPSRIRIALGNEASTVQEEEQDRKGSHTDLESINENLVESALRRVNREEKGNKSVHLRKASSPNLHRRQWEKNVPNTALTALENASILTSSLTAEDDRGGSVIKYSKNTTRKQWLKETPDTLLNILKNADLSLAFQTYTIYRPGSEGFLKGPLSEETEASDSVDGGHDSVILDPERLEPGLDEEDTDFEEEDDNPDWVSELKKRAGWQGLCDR
T12 sequence (P51817 whole entry): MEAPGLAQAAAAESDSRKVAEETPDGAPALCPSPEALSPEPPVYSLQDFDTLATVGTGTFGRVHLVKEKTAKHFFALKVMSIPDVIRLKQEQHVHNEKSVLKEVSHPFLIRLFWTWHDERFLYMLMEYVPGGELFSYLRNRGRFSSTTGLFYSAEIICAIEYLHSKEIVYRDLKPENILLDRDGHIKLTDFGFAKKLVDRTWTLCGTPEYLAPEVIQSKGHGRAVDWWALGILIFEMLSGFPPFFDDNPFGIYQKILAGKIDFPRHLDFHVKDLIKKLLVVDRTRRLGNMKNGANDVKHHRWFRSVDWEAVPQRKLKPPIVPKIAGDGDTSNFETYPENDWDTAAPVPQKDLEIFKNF
T21 sequence (O43318 whole entry): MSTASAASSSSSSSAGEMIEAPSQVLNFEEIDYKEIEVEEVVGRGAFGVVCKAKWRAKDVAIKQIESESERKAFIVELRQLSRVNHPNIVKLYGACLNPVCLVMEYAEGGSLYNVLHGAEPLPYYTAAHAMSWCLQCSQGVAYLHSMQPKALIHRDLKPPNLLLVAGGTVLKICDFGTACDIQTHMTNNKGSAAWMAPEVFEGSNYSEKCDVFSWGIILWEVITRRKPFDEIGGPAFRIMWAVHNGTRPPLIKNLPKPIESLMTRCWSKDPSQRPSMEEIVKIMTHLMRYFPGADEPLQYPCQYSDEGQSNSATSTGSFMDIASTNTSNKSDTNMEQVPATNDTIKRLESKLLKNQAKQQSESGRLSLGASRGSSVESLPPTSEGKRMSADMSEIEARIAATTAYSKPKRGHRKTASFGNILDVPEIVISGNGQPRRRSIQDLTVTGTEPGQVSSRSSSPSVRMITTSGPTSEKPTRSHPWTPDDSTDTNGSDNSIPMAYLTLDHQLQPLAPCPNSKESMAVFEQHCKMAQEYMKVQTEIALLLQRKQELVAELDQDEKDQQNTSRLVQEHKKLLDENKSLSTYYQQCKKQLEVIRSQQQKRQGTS
T29 sequence (Q8WXR4 whole entry): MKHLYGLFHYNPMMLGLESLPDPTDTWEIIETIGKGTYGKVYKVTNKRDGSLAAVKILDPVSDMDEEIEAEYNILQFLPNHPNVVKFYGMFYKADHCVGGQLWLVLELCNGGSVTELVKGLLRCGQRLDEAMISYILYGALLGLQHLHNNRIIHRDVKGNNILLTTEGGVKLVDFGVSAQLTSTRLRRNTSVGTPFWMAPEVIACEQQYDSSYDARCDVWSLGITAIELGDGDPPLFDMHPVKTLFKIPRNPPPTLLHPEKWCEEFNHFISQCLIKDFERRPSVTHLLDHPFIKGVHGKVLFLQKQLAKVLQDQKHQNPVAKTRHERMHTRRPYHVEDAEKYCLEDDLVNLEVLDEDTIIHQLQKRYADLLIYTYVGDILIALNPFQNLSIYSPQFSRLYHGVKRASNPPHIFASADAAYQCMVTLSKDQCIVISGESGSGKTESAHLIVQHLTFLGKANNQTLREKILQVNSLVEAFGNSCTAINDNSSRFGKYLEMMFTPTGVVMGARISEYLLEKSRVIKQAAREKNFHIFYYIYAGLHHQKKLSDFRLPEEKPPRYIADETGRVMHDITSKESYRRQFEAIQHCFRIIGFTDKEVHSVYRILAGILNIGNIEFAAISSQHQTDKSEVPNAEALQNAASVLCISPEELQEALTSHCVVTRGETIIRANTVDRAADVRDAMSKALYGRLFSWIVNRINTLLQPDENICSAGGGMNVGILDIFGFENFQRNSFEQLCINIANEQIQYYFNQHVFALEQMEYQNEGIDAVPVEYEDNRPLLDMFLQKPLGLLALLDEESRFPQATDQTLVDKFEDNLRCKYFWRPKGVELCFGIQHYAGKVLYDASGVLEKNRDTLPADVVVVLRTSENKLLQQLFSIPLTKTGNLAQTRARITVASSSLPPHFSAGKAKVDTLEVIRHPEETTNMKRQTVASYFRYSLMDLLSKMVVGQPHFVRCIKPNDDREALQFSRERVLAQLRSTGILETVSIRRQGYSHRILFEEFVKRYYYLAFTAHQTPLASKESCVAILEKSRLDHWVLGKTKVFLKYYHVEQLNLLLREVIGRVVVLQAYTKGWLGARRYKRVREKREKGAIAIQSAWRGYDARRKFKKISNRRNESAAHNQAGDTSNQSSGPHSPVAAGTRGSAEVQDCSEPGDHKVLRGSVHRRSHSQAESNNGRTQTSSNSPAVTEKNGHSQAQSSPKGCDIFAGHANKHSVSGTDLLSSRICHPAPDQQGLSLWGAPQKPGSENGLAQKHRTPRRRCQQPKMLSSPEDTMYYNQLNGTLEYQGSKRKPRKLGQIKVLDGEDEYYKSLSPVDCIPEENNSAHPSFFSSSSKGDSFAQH

Work on `CN(C)C(=O)c1cc2cnc(Nc3ccc(-c4csc5c(=O)cc(N6CCOCC6)oc45)cc3)nc2n1C1CCCC1` [SRX3177] yielded a remaining binding at 1 µM [1] of 45%, a remaining binding at 1 µM [2] of 100% and a remaining binding at 1 µM [3] of 68%. For the same compound, the remaining binding at 1 µM [4] was 81%, the remaining binding at 1 µM [5] was 76% and the remaining binding at 1 µM [6] was 77%. For the same compound, the remaining binding at 1 µM [7] was 90%, the remaining binding at 1 µM [8] was 88% and the remaining binding at 1 µM [9] was 79%. For the same compound, the remaining binding at 1 µM [10] was 73%, the remaining binding at 1 µM [11] was 90% and the remaining binding at 1 µM [12] was 96%. The remaining binding at 1 µM [13] was 22%, the “Percent Control” value [14] was 58 and the remaining binding at 1 µM ([14]; read-out: Percent Control) was 72%. For the same compound, the remaining binding at 1 µM [15] was 8.9%, the remaining binding at 1 µM [16] was 1.8% and the remaining binding at 1 µM [17] was 74%. For the same compound, the remaining binding at 1 µM [18] was 96%, the remaining binding at 1 µM [19] was 100% and the remaining binding at 1 µM [20] was 46%. For the same compound, the remaining binding at 1 µM [21] was 94%, the remaining binding at 1 µM [22] was 8.9% and the remaining binding at 1 µM [23] was 57%. For the same compound, the remaining binding at 1 µM [24] was 88%, the remaining binding at 1 µM [25] was 58% and the remaining binding at 1 µM [26] was 10%. The remaining binding at 1 µM ([27]; FLT3-autoinhibited) was 63%, the remaining binding at 1 µM ([27]; FLT3) was 26% and the remaining binding at 1 µM [28] was 100%. The remaining binding at 1 µM [29] was 100%, the remaining binding at 1 µM [30] was 100% and the remaining binding at 1 µM [31] was 97%. The remaining binding at 1 µM [32] was 100%.
